The values below come from patent publication US20240368170A1, “CINNOLINE COMPOUNDS AND USES THEREOF” (Genentech, Inc., priority 2018, published 2024).

Bounds are passed on as bounds.

For the first test, the target named is HPK full length, T165E S171E (Homo sapiens (Human), UniProt Q92918, S171E/T165E). Kind of test: HPK1-FL HTRF Enzymatic Assay ("HTRF"). The class given is biochemical. The conditions noted are these: H = HTRF; ATP 1 mM. As for the experimental part: Example BI: HPK1-FL HTRF Enzymatic Assay (“HTRF”)
HPK full length, T165E S171E, sequence (Q92918 whole entry T165E/S171E): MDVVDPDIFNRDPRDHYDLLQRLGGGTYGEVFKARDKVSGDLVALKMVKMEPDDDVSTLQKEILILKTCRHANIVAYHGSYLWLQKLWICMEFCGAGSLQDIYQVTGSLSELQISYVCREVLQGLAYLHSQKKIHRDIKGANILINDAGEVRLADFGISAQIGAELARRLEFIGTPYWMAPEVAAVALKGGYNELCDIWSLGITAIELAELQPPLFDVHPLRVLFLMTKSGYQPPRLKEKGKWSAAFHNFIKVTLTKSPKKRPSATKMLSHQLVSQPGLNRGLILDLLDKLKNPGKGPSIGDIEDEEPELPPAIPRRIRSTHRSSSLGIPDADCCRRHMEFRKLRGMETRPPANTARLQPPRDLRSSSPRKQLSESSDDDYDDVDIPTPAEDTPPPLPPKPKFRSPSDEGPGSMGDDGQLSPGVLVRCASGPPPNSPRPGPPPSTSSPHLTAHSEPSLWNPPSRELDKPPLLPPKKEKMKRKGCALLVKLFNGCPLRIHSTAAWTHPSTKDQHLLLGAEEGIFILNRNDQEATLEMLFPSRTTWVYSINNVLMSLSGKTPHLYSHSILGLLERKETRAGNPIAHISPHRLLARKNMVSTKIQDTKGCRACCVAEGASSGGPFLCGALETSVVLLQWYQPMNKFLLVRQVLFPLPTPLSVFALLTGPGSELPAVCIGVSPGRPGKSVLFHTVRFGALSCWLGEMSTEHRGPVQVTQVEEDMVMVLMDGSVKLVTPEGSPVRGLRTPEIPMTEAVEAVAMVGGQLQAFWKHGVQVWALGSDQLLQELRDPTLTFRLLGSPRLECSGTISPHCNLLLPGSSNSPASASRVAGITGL
HPK-FL enzyme phosphorylates Biotin-SLP-76 substrate in the presence of ATP at 1 mM and varying concentrations of test compound. Product is detected by FRET using Eu-anti-pSLP76 Ab and SA-XL665. Also see www.cisbio.com/HTRF for additional HTRF technology information.
• Assay plate: White ProxiPlate 384 F (PerkinElmer cat #6008289) • Kinase: HPK full length double mutant • Substrate: Biotin-SLP76 • ATP: 100 mM ATP • BSG: 2% BSG • DMSO: DMSO (Sigma cat #34869-100ML) • Reaction Buffer: H2O/50 mM HEPES, pH 7.5/10 mM MgCl2/2 mM TCEP/0.01% Brij-35/0.01% BSG • Detection mix: Eu-anti-pSLP76/SA-XL665 (Cisbio, #610SAXAC)
To a 384 well Proxiplate with 80 nL compound or DMSO spotted on was added 4 μl/well kinase mix. The mixture was preincubated for 30 minutes and then 4 μl/well substrate mix was added. The solution was incubated for 60 min and then 4 μl/well detection mix was added. The solution was incubated for another 60 min. The plates were then loaded onto a Perkin Elmer Envision and the TR-FRET signal was measured at 615 and 665 nm. A ratio of […] was used to calculate the % activity at each concentration of compound.
Consider `Cc1c(N)cncc1-c1ccc2nnc(Nc3cc4n(n3)CC(=O)N(C(C)C)CC4)cc2c1` [Compound 28, 2-((6-(5-Amino-4-methylpyridin-3-yl)cinnolin-3-yl)amino)-6-isopropyl-5,6-dihydro-4H-pyrazolo[1,5-d][1,4]diazepin-7(8H)-one], for which affinity was put at a Ki of 40 nM. That is a double-digit nanomolar value.

In the case of `Cc1c(N)cncc1-c1cc(N)c2nnc(Nc3cc4n(n3)CC(=O)N(C(C)C)CC4)cc2c1` [Compound 29, 2-((8-Amino-6-(5-amino-4-methylpyridin-3-yl)cinnolin-3-yl)amino)-6-isopropyl-5,6-dihydro-4H-pyrazolo[1,5-d][1,4]diazepin-7(8H)-one], the inhibition constant (Ki) was 0.098 nM.

For the next test, the system named is primary human pan T cells. As to the kind of experiment: Human T-cell IL2 Induction Assay. The conditions noted are these: assayed concentration 2.78 μM; anti-CD3/anti-CD28 stimulation. Type of test: cell-based. As for the experimental part:
Example B3: Human T-cell IL2 Induction Assay
Assay Principle: Anti-CD3 and anti-CD28 activates TCR signaling in primary human pan T cells leading to IL-2 promoter induction. Secreted IL-2 in cell culture supernatant is detected by electrochemiluminescence using a capture antibody against IL-2 and an anti-IL-2 antibody labeled with SULFO-tag. Also see www.mesoscale.com for additional electrochemiluminescence technology information.
Assay Procedure: Incubate primary human pan T cells with varying concentrations of test compounds for 30 minutes in a humidified incubator at 37° C. and 5% CO2. Transfer cells to a plate pre-coated with a fixed concentration of anti-human CD3 (determined separately for each donor lot) and add soluble anti-human CD28 (final concentration=1 μg/ml). Stimulate cells in a humidified incubator at 37° C. and 5% CO2 for 4 hours. Transfer 25 μl of supernatant to a MSD single spot plate pre-coated with an anti-human IL-2 antibody. Incubate MSD plate overnight at 4° C. with gentle shaking. Wash MSD plate 4× with wash buffer. […] Wash MSD plate 4× with wash buffer and add 150 μl 2×MSD read buffer. Read on an MSD instrument. […]
Exemplary compounds of Formula (I) were tested in the human T-cell IL-2 induction assays. The % increase measured for IL-2 in cells treated by the test compounds relative to untreated cells are provided in Table B2 for certain compounds.
With `Cc1c(N)cncc1-c1cc(N)c2nnc(NC(=O)[C@@H]3C[C@H]3C#N)cc2c1` (single isomer, unassigned) [Compound 23a], the “% IL-2 increase relative to untreated cells” value is listed as 538%.

The same test, now with this note: assayed concentration 8.33 μM; anti-CD3/anti-CD28 stimulation.
In the case of `Cc1ccncc1-c1cc(N)c2nnc(NC(=O)C3CC3)cc2c1` [Compound 25, N-(8-Amino-6-(4-methylpyridin-3-yl)cinnolin-3-yl)cyclopropanecarboxamide], the “% IL-2 increase relative to untreated cells” value came to 192%.

The target of a further test is HPK1 (Homo sapiens, UniProt Q92918). Kind of test: HPK1 Lantha Binding Assay ("Lanth"). The conditions noted are these: L = Lanth. As for the experimental part:
Example B2: HPK1 Lantha Binding Assay (“Lanth”)
For the reference compound, the top concentration was 1 mM. To the plate was added 10 μL 2 mM staurosporine in wells J1-P1 and A24-H24. A 11 point 5-fold compound serial dilution was performed using the Bravo liquid handling platform. […] The compound plate was centrifuged at 2500 rpm for 1 min. From the compound plate was transferred 80n1 of the compounds into an assay plate using the Echo liquid handler system. One compound plate makes two assay plates. Each assay plate is sealed and stored in an N2 cabinet.
The following assay concentrations and times were used: 2 nM HPK1, 2 nM Eu-Anti-GST Ab, and 15 nM Tracer222, with 60 min incubation time.
For the binding assay, 4 μL 2×HPK1 and Eu-anti-GST antibody were added to each well of the assay plate using a Multidrop reagent dispenser. The solutions were incubated in a 23 C incubator for 1 h. To each well of the assay plate was added 4 μL 2× Tracer-222 using a Multidrop reagent dispenser. The solutions were again incubated in a 23° C. incubator for 1 h. The results of the assay were read using an Envision plate reader with the following parameters: TR_FRET, 340ex/615 and 665em; […].
Compound Ki was analyzed using Morrison ki fit model in XL-fit
[formula] [formula] • b. Parameters: • E=enzyme concentration • S=Tracer222 concentration, Kd=Tracer222 Kd
All measurements are reported using the same units (nM).
Exemplary compounds were tested in the binding assays.
`CCc1ccncc1-c1cc(N)c2nnc(NC(=O)NC(C)C)cc2c1` [Compound 11, 1-[8-Amino-6-(4-ethyl-3-pyridyl)cinnolin-3-yl]-3-isopropyl-urea] came in with an inhibition constant (Ki) of 8 nM.

As for `Cc1cnsc1-c1cc(N)c2nnc(NC(=O)[C@@H]3C[C@@H]3F)cc2c1` (racemic) [Compound 15, (+/−)-cis-N-[8-Amino-6-(4-methylisothiazol-5-yl)cinnolin-3-yl]-2-fluoro-cyclopropanecarboxamide], the affinity corresponds to a Ki of 3 nM.

For `CCc1cc(N)c2nnc(NC(=O)[C@@H]3C[C@@H]3F)cc2c1` [Compound 6a, (1S,2S)-N-(8-Amino-6-ethylcinnolin-3-yl)-2-fluorocyclopropanecarboxamide], the inhibitory constant (Ki) was determined as 440 nM. Same read-out and setting: as for `COc1ccncc1-c1cc(N)c2nnc(NC(=O)[C@@H]3C[C@@H]3F)cc2c1` [Compound 2a, (1S,2S)—N-(8-Amino-6-(4-methoxypyridin-3-yl)cinnolin-3-yl)-2-fluorocyclopropanecarboxamide], the figure is 58 nM; as for `N#Cc1ccncc1-c1cc(N)c2nnc(NC(=O)[C@@H]3C[C@@H]3F)cc2c1` (racemic) [Compound 4, (+/−)-cis-N-(8-Amino-6-(4-cyanopyridin-3-yl)cinnolin-3-yl)-2-fluorocyclopropanecarboxamide], 600 nM. Still for that read-out and setting: as for `Nc1cc(-c2cnccc2C2CC2)cc2cc(NC(=O)[C@@H]3C[C@@H]3F)nnc12` (racemic) [Compound 22, (+/−)-cis-N-(8-Amino-6-(4-cyclopropylpyridin-3-yl)cinnolin-3-yl)-2-fluorocyclopropanecarboxamide], the figure is 31 nM; as for `CC(C)OC(=O)Nc1cc2cc(-c3cnn(C)c3)cc(N)c2nn1` [Compound 9, Isopropyl N-[8-amino-6-(1-methylpyrazol-4-yl)cinnolin-3-yl]carbamate], 28 nM.

Regarding `Cc1ccncc1-c1cc(C)c2nnc(NC(=O)C3CC3)cc2c1` [Compound 24, N-(8-Methyl-6-(4-methylpyridin-3-yl)cinnolin-3-yl)cyclopropanecarboxamide], the affinity corresponds to a Ki of 260 nM. Still for that read-out and setting: as for `CCc1ccncc1-c1cc(N)c2nnc(NC(=O)[C@@H]3C[C@@H]3F)cc2c1` (racemic) [Compound 21, (+/−)-cis-N-(8-Amino-6-(4-ethylpyridin-3-yl)cinnolin-3-yl)-2-fluorocyclopropanecarboxamide], the figure is 4 nM. The same measure, in the same setting: to `Cn1cc(-c2cc(N)c3nnc(NC(=O)[C@@H]4C[C@@H]4F)cc3c2)cn1` [Compound 18a, (1S,2S)—N-(8-Amino-6-(1-methyl-1H-pyrazol-4-yl)cinnolin-3-yl)-2-fluorocyclopropanecarboxamide] belongs 15 nM; to `Cn1cc(-c2cc(N)c3nnc(NC(=O)N4CCCC4)cc3c2)cn1` [Compound 10, N-[8-Amino-6-(1-methylpyrazol-4-yl)cinnolin-3-yl]pyrrolidine-1-carboxamide], 65 nM. In turn, `Cc1c(N)cncc1-c1cc(N)c2nnc(NC(=O)[C@H]3C[C@@H]3C#N)cc2c1` (single isomer, unassigned) [Compound 23b] displayed an inhibition constant (Ki) of 4 nM. On the same count and under the same terms, as for `Cc1ccncc1-c1cc(N)c2nnc(NC(=O)C3CC3)cc2c1` [Compound 25, N-(8-Amino-6-(4-methylpyridin-3-yl)cinnolin-3-yl)cyclopropanecarboxamide], the figure is 1.9 nM; as for `Cc1c(N)cncc1-c1cc(N)c2nnc(NC(=O)[C@@H]3C[C@H]3C#N)cc2c1` (single isomer, unassigned) [Compound 23a], 0.7 nM. As to `Cc1cnccc1-c1cc(N)c2nnc(NC(=O)[C@@H]3C[C@@H]3F)cc2c1` [Compound 17a, (1S,2S)—N-(8-Amino-6-(3-methylpyridin-4-yl)cinnolin-3-yl)-2-fluorocyclopropanecarboxamide], affinity was put at a Ki of 53 nM. Against the preceding molecule, the Ki is about 76-fold higher. Molecule `Cn1cc(-c2cc(N)c3nnc(NC(=O)[C@@H]4C[C@H]4C#N)cc3c2)cn1` (racemic) [Compound 19, (+/−)-trans-N-(8-Amino-6-(1-methyl-1H-pyrazol-4-yl)cinnolin-3-yl)-2-cyanocyclopropanecarboxamide] displayed an inhibition constant (Ki) of 14 nM. In turn, `Cc1cc(N)ncc1-c1cc(N)c2nnc(NC(=O)[C@@H]3C[C@@H]3F)cc2c1` [Compound 5a, (1S,2S)—N-(8-Amino-6-(6-amino-4-methylpyridin-3-yl)cinnolin-3-yl)-2-fluorocyclopropanecarboxamide] registered an inhibitory constant (Ki) of 15 nM. The Ki values of the last two molecules are within 1.5-fold of each other.

Take `Nc1cc(C2CC2)cc2cc(NC(=O)[C@@H]3C[C@@H]3F)nnc12` (racemic) [Compound 7, cis-N-(8-Amino-6-cyclopropylcinnolin-3-yl)-2-fluorocyclopropane carboxamide]: affinity was put at a Ki of 600 nM.

`Cc1ccncc1-c1cc(Cl)c2nnc(NC(=O)C3CC3)cc2c1` [Compound 26, N-(8-Chloro-6-(4-methylpyridin-3-yl)cinnolin-3-yl)cyclopropanecarboxamide] came in with a Ki of more than 1000 nM. `CCc1ccncc1-c1cc(N)c2nnc(NC(=O)[C@@H]3C[C@H]3C#N)cc2c1` (racemic) [Compound 20, (+/−)-trans-N-(8-Amino-6-(4-ethylpyridin-3-yl)cinnolin-3-yl)-2-cyanocyclopropanecarboxamide] registered an inhibition constant (Ki) of 13 nM. This counts as double-digit nanomolar. Take `Cc1ccncc1-c1ccc2nnc(NC(=O)C3CC3)cc2c1` [Compound 27, N-(6-(4-Methylpyridin-3-yl)cinnolin-3-yl)cyclopropanecarboxamide]: the inhibition constant Ki is 510 nM. Against the preceding molecule, the Ki is about 39-fold higher.
